Results on one compound are retold here after ChEMBL document CHEMBL4196101, “Dual Leucine Zipper Kinase Inhibitors for the Treatment of Neurodegeneration” (J Med Chem, 2018).

By IC50 is commonly meant the concentration at which inhibition is half-maximal.

The target of this assay is Mitogen-activated protein kinase kinase kinase 12 (Homo sapiens) (UniProt Q12852). Briefly: Inhibition of DLK (unknown origin) using myelin basic protein as substrate preincubated for 15 mins measured after 30 mins in presence of [gamma-32P]ATP by scintillation counting.
Mitogen-activated protein kinase kinase kinase 12 (Homo sapiens), sequence (Q12852 whole entry, looked up): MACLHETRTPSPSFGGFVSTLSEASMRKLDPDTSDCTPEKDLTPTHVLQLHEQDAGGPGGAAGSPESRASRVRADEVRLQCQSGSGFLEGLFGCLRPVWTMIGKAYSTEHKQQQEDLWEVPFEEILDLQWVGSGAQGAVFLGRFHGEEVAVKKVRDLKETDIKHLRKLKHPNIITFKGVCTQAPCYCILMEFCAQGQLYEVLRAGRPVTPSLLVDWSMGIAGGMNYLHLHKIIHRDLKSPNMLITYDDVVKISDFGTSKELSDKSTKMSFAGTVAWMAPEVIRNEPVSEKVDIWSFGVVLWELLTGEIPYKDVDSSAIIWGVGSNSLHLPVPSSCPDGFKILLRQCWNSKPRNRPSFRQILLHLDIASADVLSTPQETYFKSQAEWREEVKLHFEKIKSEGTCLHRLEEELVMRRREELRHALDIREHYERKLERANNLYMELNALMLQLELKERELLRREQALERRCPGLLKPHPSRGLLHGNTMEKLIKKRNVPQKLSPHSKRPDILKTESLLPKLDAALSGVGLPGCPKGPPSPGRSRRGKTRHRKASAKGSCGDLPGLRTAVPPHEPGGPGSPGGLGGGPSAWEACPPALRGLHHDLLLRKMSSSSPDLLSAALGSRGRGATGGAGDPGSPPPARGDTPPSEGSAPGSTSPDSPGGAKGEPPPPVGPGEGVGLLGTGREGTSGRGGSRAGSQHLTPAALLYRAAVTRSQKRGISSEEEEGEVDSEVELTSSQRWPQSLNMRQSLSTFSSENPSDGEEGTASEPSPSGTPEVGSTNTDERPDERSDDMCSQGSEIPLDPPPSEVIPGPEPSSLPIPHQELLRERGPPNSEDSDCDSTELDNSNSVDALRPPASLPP

In the case of `CCSCc1ccc2c(c1)c1c3c(c4c5cc(CSCC)ccc5n5c4c1n2[C@H]1C[C@](O)(C(=O)OC)[C@]5(C)O1)CNC3=O` [CEP-1347], the IC50 came to 114 nM.
